Laboratory results reported in patent US20250304526A1, “HIGH AND MULTIPLE REDOX POTENTIAL, STABLE, AND SOLUBLE BIS-DIARYLAMINE DERIVATIVES AND USES THEREOF” (University of Kentucky Research Foundation, priority 2024, published 2025).

Assay: Solubility determination in pure acetonitrile by mass measurement
Type: physicochemical
Protocol: The solubility of the compounds in pure acetonitrile was determined by the mass measurement method described previously. Saturated solutions of each compound were prepared and filtered to remove any undissolved material. Afterwards, 3 mL of each solution were taken and added to previously weighed vials (the measurement was repeated three times for each solution, i.e. 3 vials for each solution). The vials were then stored open in a nitrogen-filled glove box to allow the slow evaporation of the solvent. After 10 days, acetonitrile was evaporated from all vials, leaving only the previously dissolved solid. The vials were then re-weighed and the mass of the solid was determined by subtracting the mass of the respective empty vial. The concentration of the compound was calculated from the mass of the dissolved solid and the volume of the sample placed into the vial.
The solubilities of 1-4 were examined in pure CH3CN using the mass measurement method.

Q: Which solubility does the source give for `c1ccc(N(c2ccccc2)c2ccc(N(c3ccccc3)c3ccccc3)cc2)cc1` [A, N,N,N′,N′-Tetraphenyl-1,4-phenylenediamine, reference compound] here?
A: virtually insoluble
